Experimental data from paper PMC7754455 (Journal of Clinical Pharmacology, 2020).

What was measured:
[1] = Simcyp PBPK model parameter
[2] = Blood and plasma binding and permeability PBPK input parameters; conditions: PBPK model parameter, fixed to observed value
[3] = Clinical DDI study part 2: plasma PK of molibresib alone and with rifampicin; conditions: for AUC0‐∞ / Cmax / t1/2 / tmax: part 2 n = 14; for AUC0‐∞ / Cmax / t1/2: geometric mean (CVb%); for tmax: median (range)
[4] = Clinical DDI study part 1: plasma PK of molibresib alone and with itraconazole; conditions: with itraconazole vs alone, dose-normalized
[5] = human urine; ref study BET115521; cited from earlier work
[6] = preclinical findings; cited from earlier work
[7] = Safety and tolerability in the DDI study; conditions: one subject, part 1, appeared on day 6
[8] = with rifampicin vs alone, part 2

With COc1ccc2c(c1)C(c1ccc(Cl)cc1)=N[C@@H](CC(N)=O)c1nnc(C)n1-2 [GSK3529246] the Compound type [1] was “Monoprotic base”, the “Log P” value [1] was 1.6 and the pKb [1] was 7.36. The “Blood:plasma ratio” value [2] was 0.9, the Fu plasma ([2]; fraction unbound) was 0.2 and the “increase in Cmax with rifampicin” value ([3]; part 2) was 2 fold. For the same molecule, the “AUC0‐∞” value ([3]; molibresib 10 mg alone) was 622 (26) ng·h/mL, the Cmax ([3]; molibresib 10 mg alone) was 49.0 (24) ng/mL and the t1/2 ([3]; molibresib 10 mg alone) was 10.0 (22) h. The tmax ([3]; molibresib 10 mg alone) was 2.0 (1.0‐4.1) h, the “AUC0‐∞” value ([3]; molibresib 20 mg + rifampicin) was 1140 (26) ng·h/mL and the Cmax ([3]; molibresib 20 mg + rifampicin) was 200 (24) ng/mL. For the same molecule, the t1/2 ([3]; molibresib 20 mg + rifampicin) was 10.0 (24) h, the tmax ([3]; molibresib 20 mg + rifampicin) was 1.0 (0.53‐1.5) h and the “AUC0‐∞ Geometric Mean Ratio, Dosed Normalized (90%CI)” value [3, 8] was 0.917 (0.850‐0.989). For the same molecule, the “Cmax Geometric Mean Ratio, Dosed Normalized (90%CI)” value [3, 8] was 2.04 (1.78‐2.32), the “AUC Observed Geometric Mean Ratio (90%CI)” value ([4]; AUC 0 to infinity) was 0.29 (0.26‐0.32) and the “Cmax Observed Geometric Mean Ratio (90%CI)” value [4] was 0.13 (0.11‐0.14).
For CCNC(=O)C[C@@H]1N=C(c2ccc(Cl)cc2)c2cc(OC)ccc2-n2c(C)nnc21 [Molibresib], the “urinary excretion of unchanged drug” value [5] is given as “approximately 9.5 % of the total dose administered” and the “preclinical adverse effects on male reproductive organs” value [6] is given as “adverse effects on the testes including sperm retention and disorganized spermatogenesis”.
With CCC(C)n1ncn(-c2ccc(N3CCN(c4ccc(OCC5COC(Cn6cncn6)(c6ccc(Cl)cc6Cl)O5)cc4)CC3)cc2)c1=O (stereo not drawn) [itraconazole] the “adverse event considered related by the investigator” value [7] was “mild elevations in liver enzymes”.
